According to patent US20040248919A1, “Fluorinated trienes and their use as rxr modulators” (priority 2001, published 2004):

Columns and labels:
RARβ = biological target: T1, RARβ (Homo sapiens, UniProt P10826); test: RAR binding, competition with tritiated retinoid; conditions: read-out: RAR Binding beta
T1 sequence (P10826 1-455): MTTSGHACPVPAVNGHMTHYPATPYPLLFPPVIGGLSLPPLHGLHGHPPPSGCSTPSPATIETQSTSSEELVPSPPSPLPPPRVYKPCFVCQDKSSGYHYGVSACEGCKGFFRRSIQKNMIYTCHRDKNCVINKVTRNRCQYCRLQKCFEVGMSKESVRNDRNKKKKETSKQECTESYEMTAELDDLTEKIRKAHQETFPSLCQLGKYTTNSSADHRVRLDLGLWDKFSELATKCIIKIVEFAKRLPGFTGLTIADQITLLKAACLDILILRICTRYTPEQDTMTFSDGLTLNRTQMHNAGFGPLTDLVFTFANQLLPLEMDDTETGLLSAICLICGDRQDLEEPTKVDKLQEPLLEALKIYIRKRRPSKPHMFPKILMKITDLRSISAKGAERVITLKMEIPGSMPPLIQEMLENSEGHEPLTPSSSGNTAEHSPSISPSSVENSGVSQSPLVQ
Description: In addition to the cotransfection data, the binding of selected compounds of the present invention to the RAR and RXR receptors was also investigated according to the methodology described in M. F., Boehm, et al., “Synthesis and Structure-Activity Relation-ships of Novel Retinoid X Receptor Selective Retinoids”, 37 J. Med. Chem., 2930 (1994); M. F. Boehm, et al., “Synthesis of High Specific Activity [^3H]-9-cis Retinoic Acid and Its Application for Identifying Retinoids with Unusual Binding Properties”, 37 J. Med. Chem., 408 (1994), and E. A. Allegretto, et al., “Characterization and Comparison of Hormone-Binding and Transactivation Properties of Retinoic Acid and Retinoid X Receptors Expressed in Mammalian Cells and Yeast”, 268 J. Biol. Chem., 22625 (1993), the disclosures of which are herein incorporated by reference.
Non-specific binding was defined as that binding remaining in the presence of 500 nM of the appropriate unlabelled compound. At the end of the incubation period, bound ligand was separated from free. The amount of bound tritiated retinoid was determined by liquid scintillation counting of an aliquot (700 μL) of the supernatant fluid or the hydroxylapatite pellet.
After correcting for non-specific binding, IC50 values were determined. The IC50 value is defined as the concentration of competing ligand needed to reduce specific binding by 50%. The IC50 value was determined graphically from a log-logit plot of the data. The Ki values were determined by application of the Cheng-Prussof equation to the IC50 values, the labeled ligand concentration and the Kd of the labeled ligand.

[1] = Metabolic stability in mouse liver microsomes; format: in vitro ADME; conditions: 20 min incubation, 37° C., NADPH
Protocol: A solution containing 1130 μL of 100 mM sodium phosphate buffer, pH 7.4, 20 μL of a 25 mg/mL CD-1 mouse liver microsomal suspension in 100 mM sodium phosphate buffer, pH 7.4, and 830 μL of a 4 mg/mL NADPH solution in 100 mM sodium phosphate buffer, pH 7.4, was prepared in a glass test tube, mixed on a vortexer, and incubated in a shaking water bath at 37° C. for 3 min. A test compound was dissolved in 10% DMSO/90% methanol to a final concentration of 400 μM, and 20 μL was added to the above solution after the 3 min. incubation. The solution was mixed on a vortexer, and incubated at 37° C. in the shaking water bath. After 0, 5, 10 and 20 min incubation, 75 μL aliquots of the incubation solution were removed in triplicate and each aliquot was added to a 75 μL solution that contained 2 μM of an internal standard in 50% acetonitrile/50% 20 mM ZnSO4 and 20 mM NaOH in water. Samples were mixed on a vortexer, and centrifuged at 10° C. for 25 min at 3000 rpm. The supernatant was separated from the microsomal pellet and analyzed for the test compound by electrospray negative ionization using a Micromass Platform LCZ mass spectrometer equipped with a Shimadzu 10AD VP pump, and Shimadzu 10AD UP autosampler. […] Peak area ratios of the test compound to internal standard at each time point were compared to the 0 min. time point to assess metabolic stability. […]

| Metabolic stability (mouse microsomes): Difference from reference compound at 20 min. [1] [%] | SMILES | Ki (RARβ) [µM] |
| --- | --- | --- |
| 29.295 | C/C(=C/C=C(F)/C(C)=C/C(=O)O)c1cc(C(C)(C)C)cc(C(C)(C)C)c1OCC(F)F [Example 1, 7-[3,5-di-tert-butyl-2-(2,2-difluoroethoxy)-phenyl]4-fluoro-3-methyl-octa-2,4,6-trienoic acid] | 6.63 |
| 18.300 | C/C(=C/C(F)=C/C(C)=C/C(=O)O)c1cc(C(C)(C)C)cc(C(C)(C)C)c1OCC(F)F [Example 2, 7-[3,5-Di-tert-butyl-2-(2,2-difluoroethoxy)-phenyl]-5-fluoro-3-methyl-octa-2,4,6-trienoic acid] | 2.75 |
| – | CCCCOc1c(\C(C)=C/C=C/C(=C/C(=O)O)C(F)(F)F)cc(C(C)C)cc1C(C)C [Example 3, (2Z,4E,6Z)-7-(2-Butoxy-3,5-diisopropylphenyl)-3-trifluoromethyl-octa-2,4,6-trienoic acid] | > 10 |
| – | CCCCOc1c(\C(C)=C/C=C/C(=C\C(=O)O)C(F)(F)F)cc(C(C)C)cc1C(C)C [Example 4, (2E,4E,6Z)-7-(2-Butoxy-3,5-diisopropylphenyl)-3-trifluoromethyl-octa-2,4,6-trienoic acid] | > 10 |
| – | CCOc1c(\C(=C/C=C/C(C)=C/C(=O)O)C(F)(F)F)cc(C(C)(C)C)cc1C(C)(C)C [Example 5, (2E,4E,6E)-3-methyl-7-(2-ethoxy-3,5-di-tert-butylphenyl)-8,8,8-trifluoroocta-2,4,6-trienoic acid] | 7.25 |
